Experiments:
Mus musculus [1] = assay: Increase in threshold voltage (applied via a subcutaneous and a buccal electrode) for inducing tonic hind limb extension seizures in 50% (CV50) in mouse MEST model at a dose of 10 mg/kg orally; assay type: functional, Hindlimb; conditions: route oral
Mus musculus [2] = assay: Change in threshold voltage (applied via a subcutaneous and a buccal electrode) for inducing tonic hind limb extension seizures in 50% (CV50) in mouse MEST model at a dose of 10 mg/kg orally; assay type: functional, Hindlimb; conditions: route oral
Mus musculus [3] = assay: Change in threshold voltage (applied via a subcutaneous and a buccal electrode) for inducing tonic hind limb extension seizures in 50% (CV50) in mouse MEST model at a dose of 30 mg/kg orally; assay type: functional, Hindlimb; conditions: route oral
Mus musculus [4] = assay: Dose required to produce a 50% elevation in seizure threshold after oral administration; assay type: functional
Mus musculus [5] = assay: Change in threshold voltage (applied via a subcutaneous and a buccal electrode) for inducing tonic hind limb extension seizures in 50% (CV50) in mouse MEST model at a dose of 10 mg/kg intraperitoneally 30 min pretest; assay type: functional, Hindlimb

Work on CC1(C)Oc2ccc(C#N)cc2C(NC(=O)c2ccc(F)cc2)[C@@H]1O (stereo partly specified) yielded a Change (Mus musculus [1]) of 49%.

Work on CC1(C)Oc2ccc(C#N)cc2[C@@H](NC(=O)c2ccc(F)cc2)[C@@H]1O yielded a Change (Mus musculus [1]) of 17%.

Work on CC(C)(C)c1ccc2c(c1)C(N1CCCC1=O)[C@H](O)C(C)(C)O2 (stereo partly specified) yielded a Change (Mus musculus [1]) of 12%.

CC1(C)Oc2ccc(C(F)(F)F)cc2C(NC(=O)c2ccc(F)cc2)[C@@H]1O (stereo partly specified) gave a Change (Mus musculus [2]) of 33%.

CC1(C)Oc2ccc(C#N)cc2C(NC(=O)c2ccccc2)[C@@H]1O (stereo partly specified) gave a Change (Mus musculus [1]) of 29%.

Compound CC1(C)Oc2ccncc2C(NC(=O)c2ccc(F)cc2)[C@@H]1O (stereo partly specified) has a Change (Mus musculus [2]) of 5%.

Compound CC1(C)Oc2ccc(C#N)cc2[C@H](NC(=O)c2ccc(F)cc2)[C@H]1O has a Change (Mus musculus [1]) of 41%.

For CC1(C)Oc2ccc(C#N)cc2C(NC(=O)c2ccc(O)cc2)[C@@H]1O (stereo partly specified), the Change (Mus musculus [3]) was -2%.

CC1(C)C=C(N2CCCC2=O)c2cc(C#N)ccc2O1 was tested, and the Change (Mus musculus [1]) was 4%.

CC1(C)Oc2ccc(C#N)cc2[C@@H](NC(=O)c2cccc(F)c2)[C@@H]1O was tested, and the Change (Mus musculus [1]) was 12%.

Work on COc1ccc2c(c1)C(NC(=O)c1ccc(F)cc1)[C@H](O)C(C)(C)O2 (stereo partly specified) yielded a Change (Mus musculus [3]) of 28%.

CN(C(=O)c1ccc(F)cc1)C1c2cc(C#N)ccc2OC(C)(C)[C@H]1O (stereo partly specified) showed a Change (Mus musculus [3]) of 26%.

CC1(C)Oc2ccc(C#N)cc2C(NC(=O)c2ccc(C#N)cc2)[C@@H]1O (stereo partly specified) was tested, and the Change (Mus musculus [3]) was 7%.

CC(C)c1ccc2c(c1)C(NC(=O)c1ccc(F)cc1)[C@H](O)C(C)(C)O2 (stereo partly specified) showed a Change (Mus musculus [3]) of 19%.

Work on CCC1(c2ccccc2)C(=O)NC(=O)NC1=O [PHENOBARBITAL] yielded an ED50 (Mus musculus [4]) of 10.6 mg/kg.

For CC1(C)Oc2ccc(C#N)cc2[C@H](NC(=O)c2cccc(F)c2)[C@H]1O, the Change (Mus musculus [1]) was 50%.

Compound CC1(C)Oc2ccc(-c3ccccc3)cc2C(NC(=O)c2ccc(F)cc2)[C@@H]1O (stereo partly specified) has a Change (Mus musculus [3]) of 20%.

Compound NC(=O)N1c2ccccc2C=Cc2ccccc21 [CARBAMAZEPINE] has an ED50 (Mus musculus [4]) of 12.7 mg/kg.

CC1(C)Oc2ccc(C#N)cc2C(N2CCCC2=O)C1O (racemic) [CROMAKALIM] was tested, and the Change (Mus musculus [2]) was 4% and the Change (Mus musculus [5]) was -16%.

CC1(C)Oc2ccccc2C(NC(=O)c2ccc(F)cc2)[C@@H]1O (stereo partly specified) showed a Change (Mus musculus [3]) of 13%.

Source: ChEMBL document CHEMBL1128157, “Stereochemical differentiation of anticonvulsant and antihypertensive effects in 4-(fluorobenzoylamino)-benzopyrans” (1995)
